The text below walks through data of patent publication US20230015532A1, “PHARMACEUTICAL COMPOSITION, FOR PREVENTING OR TREATING FIBROSIS, COMPRISING PHEOPHORBIDE COMPOUND AS ACTIVE INGREDIENT” (PAEAN BIOTECHNOLOGY INC., priority 2019, published 2023).

Common to all, as to format: cell-based, human
The test system of experiment [1] is α-SMA, CTGF and NOX4 genes in CCD8-Lu cells. Briefly: Comparison of anti-fibrotic activity by quantitative real-time PCR (Experimental Example 4.1). As to conditions: 6 hours after 5 ng/ml TGF-β, 18 hours, qRT-PCR. As for the experimental part: A cell-based analysis experiment was performed to analyze the anti-fibrotic activity of pheophorbide a obtained in Preparation Example 2 in comparison with nintedanib and pirfenidone, which were previously approved as a therapeutic agent for pulmonary fibrosis, using quantitative real-time polymerase chain reaction.
(§1) CCD8-Lu cells, which are human lung-derived fibroblasts, were cultured in the DMEM medium containing 10% FBS. About 2×10^5 cells were then inoculated into a 6 well plate, cultured for 24 hours, and subjected to the deficient condition in the DMEM medium from which FBS was removed for about 24 hours.
24 hours later, following the treatment with TGF-β at a concentration of 5 ng/ml, fibrosis of cells was induced for 6 hours. After 6 hours, the cells were treated with pheophorbide a obtained in Preparation Example 2 or the therapeutic agent for pulmonary fibrosis and further cultured for 18 hours. […]
The supernatant was separated, added with the same volume of isopropyl alcohol and centrifuged at 12,000×g for 10 minutes. […] After drying, about 50 μl of RNAase-free purified distilled water was added thereto, and the quantity and purity of the obtained RNA was measured using a spectrophotometer. […]
After the cDNA synthesis reaction was completed, the reverse transcriptase was inactivated by heating at 72° C. for 5 minutes, and then RNase H was added to remove the […] RNA and obtain the final cDNA. Whether the expression of the alpha-smooth muscle actin gene, which is a characteristic gene of myofibroblasts, the CCN2 (or CTGF) gene, which is a characteristic gene for fibrosis, fibronectin, which is a characteristics gene for fibrosis, and the NOX4 (NADPH oxidase 4) gene known as a major regulator of the amount of reactive oxygen species was changed was observed through quantitative real-time polymerase chain reaction. The GAPDH gene was quantified together to correct differences in expression.
A general note: In qPCR the cycle at which signal appears reflects the starting amount.

The test system of experiment [2] is α-SMA, collagen 1A and fibronectin in CCD8-Lu cells. Briefly: Comparison of anti-fibrotic activity by Western blotting (Experimental Example 4.2). As to conditions: 6 hours after 5 ng/ml TGF-β, 18 hours. Here is the method: A cell-based analysis experiment was performed to analyze the anti-fibrotic activity of pheophorbide a in comparison with nintedanib and pirfenidone, which were previously approved as a therapeutic agent for pulmonary fibrosis, using Western blotting assay.
as §1
24 hours later, following the treatment with TGF-β at a concentration of 5 ng/ml, fibrosis of cells was induced for 6 hours. Then, the cells were treated with pheophorbide a obtained in Preparation Example 2 or the therapeutic agent for pulmonary fibrosis and further cultured for 18 hours. Then, the negative control group was treated with nothing, the positive control group was treated with TGF-β alone at a concentration of 5 ng/ml, and the experimental groups were treated with TGF-β at a concentration of 5 ng/ml and 6 hours later, with pheophorbide a at a concentration of […] or 5 μM, nintedanib at a concentration of 1 μM, and pirfenidone at a concentration of 1 mM, respectively.
After 18 hours, the culture medium was removed and the cells were washed twice by adding a PBS buffer solution, and 100 μl of RIPA buffer solution (150 mM NaCl, 1% NP-40, 0.5% Deoxycholic acid, 0.1% SDS, 50 mM Tris pH 7.5) containing a protease inhibitor was added thereto directly. 10 minutes later, the cells were recovered using a scraper and transferred to a microtube and centrifuged at about 12,000×g for 10 minutes.
The separated supernatant was obtained and transferred to a new microtube and then the protein was quantified using a bicinchoninic acid assay (BCA assay) protein quantitative kit. Each sample with the same amount of protein was subjected to electrophoresis, and then Western blotting was performed. […]
A general note: A western blot detects proteins with antibodies after separation by electrophoresis.

Experiment [3] relates to collagen 1A in CCD8-Lu cells. Description: Comparison of anti-fibrotic activity by immunocytochemistry staining (Experimental Example 4.3). As to conditions: 1 μM; 6 hours after 5 ng/ml TGF-β; fluorescence intensity. As for the experimental part: A cell-based analysis experiment was performed to analyze the anti-fibrotic activity of pheophorbide a in comparison with nintedanib and pirfenidone, which were previously approved as a therapeutic agent for pulmonary fibrosis, using immunocytochemistry staining method. CCD8-Lu cells, which are human lung-derived fibroblasts, were cultured in the DMEM medium containing 10% FBS. About 2×10^4 cells were then inoculated into a 24 well plate and cultured for 24 hours, and subjected to the deficient condition in the DMEM medium from which FBS was removed for about 24 hours. After 24 hours, following the treatment with TGF-β at a concentration of 5 ng/ml, fibrosis of cells was induced for 6 hours. After 6 hours, the cells were treated with 2.5 μM or 5 μM of pheophorbide a, 1 μM of nintedanib, or 1 mM of pirfenidone. Immunohistochemistry analysis for each sample was performed as follows. First, the sample was washed twice with a PBS buffer, and then 4% formaldehyde was added to fix for 1 hour, and anti-collagen 1A was used as a primary antibody and Alexa Fluor 488 was used as a secondary antibody. The nuclei were stained using DAPI (4,6-diamidino-2-phenylindole) and the difference in the intensity of fluorescence was analyzed using a fluorescence microscope.

For experiment [4], the system named is phosphorylated Smad3 and phosphorylated ERK in CCD8-Lu cells. Briefly: Western blotting of phosphorylated proteins of TGF-β signaling (Experimental Example 5). As to conditions: 1 μM, 6 hours after 5 ng/ml TGF-β. Here is the method:
A cell-based assay experiment was performed using Western blotting assay to determine the effect of pheophorbide a on phosphorylation in the TGF-β signaling pathway. CCD8-Lu cells, which are human lung-derived fibroblasts, were cultured in the DMEM medium containing 10% FBS. About 2×10^5 cells were then inoculated into a 6 well plate, cultured for 24 hours, and subjected to the deficient condition in the DMEM medium from which FBS was removed for about 24 hours. 24 hours later, following the treatment with TGF-β at a concentration of 5 ng/ml, fibrosis of cells was induced for 6 hours. Then, the cells were treated with pheophorbide a obtained in Preparation Example 2 or the therapeutic agent for pulmonary fibrosis and further cultured for 18 hours. Then, the negative control group was treated with nothing, the positive control group was treated with TGF-β alone at a concentration of 5 ng/ml, and the experimental groups were treated with TGF-β at a concentration of 5 ng/ml and 6 hours later, with pheophorbide a at a concentration of 5 μM and nintedanib at a concentration of 1 μM, respectively. […] The separated supernatant was obtained and transferred to a new microtube and then the protein was quantified using a bicinchoninic acid assay (BCA assay) protein quantitative kit. […]

As for `COC(=O)c1ccc2c(c1)NC(=O)/C2=C(\Nc1ccc(N(C)C(=O)CN2CCN(C)CC2)cc1)c1ccccc1` [nintedanib, reference compound], the “expression of α-SMA, CTGF and NOX4 genes induced by TGF-β” value in experiment [1] (1 μM) is “weakly or hardly inhibited”. Besides, the “expression of α-SMA, collagen 1A, and fibronectin induced by TGF-β” value in experiment [2] (1 μM) is “weakly or hardly inhibited”. In experiment [3], the “expression of the collagen 1A protein induced by TGF-β” value is listed as “weakly inhibited”. Further, the “expression of phosphorylated Smad3 and phosphorylated ERK induced by TGF-β” value in experiment [4] is “hardly inhibited”.

For `Cc1ccc(=O)n(-c2ccccc2)c1` [pirfenidone], the “expression of α-SMA, CTGF and NOX4 genes induced by TGF-β” value in experiment [1] (1 mM) is given as “weakly or hardly inhibited”. The “expression of α-SMA, collagen 1A, and fibronectin induced by TGF-β” value in experiment [2] (1 mM) is on record as “weakly or hardly inhibited”.
